Measured values taken from patent US12637478B2, “Compound, preparation method thereof, and antibiotic composition comprising same” (priority 2020, dated 2026).
Values after ≈ are worked out from the molar mass of the structure shown. Where two headings read alike, the source gives them in different places.

Legend:
S. aureus^MS [1] = assay: MIC by broth microdilution (aerobic pathogens), test strain 1; assay type: cell-based; settings: Staphylococcus aureus
Description: (§1) The antibacterial activity of the compounds of Examples 1 to 48 of the present invention against aerobic pathogens were evaluated by measuring the minimum concentration of the antibiotic capable of inhibiting bacterial growth by 90% compared to the growth of the non-drug treated control group. MIC was measured by the broth microdilution method based on CLSI standards [Reference: Clinical and Laboratory Standards Institute Document. (2000) Methods for Dilution Antimicrobial Susceptibility Test for Bacteria that Grow Aerobically-Fifth Edition: M7-A5. CLSI, Villanova, PA].
(§2) All 13 strains such as methicillin susceptible Staphylococcus aureus (MSSA), methicillin resistant Staphylococcus aureus (MRSA), Vancomycin resistant Staphylococcus aureus (VRSA), Staphylococcus epidermidis, methicillin resistant Staphylococcus epidermidis, Enterococcus faecalis, Vancomycin resistant Enterococcus faecalis, Enterococcus faecium, Vancomycin resistant Enterococcus faecium were used.

S. aureus^MS [2] = assay: MIC by broth microdilution (aerobic pathogens), test strain 2; assay type: cell-based; settings: Staphylococcus aureus
Description: as §1, §2

S. aureus^VR = assay: MIC by broth microdilution (aerobic pathogens), test strain 4; assay type: cell-based, Vancomycin resistant Staphylococcus aureus; settings: Staphylococcus aureus; test strain 4, S. aureus^VR (vancomycin resistant); read-out: MIC
Description: as §1, §2

S. epidermis = assay: MIC by broth microdilution (aerobic pathogens), test strain 5; assay type: cell-based; settings: Staphylococcus epidermidis
Description: as §1, §2

S. epidermis^MR = assay: MIC by broth microdilution (aerobic pathogens), test strain 6; assay type: cell-based, Methicillin resistant Staphylococcus epidermidis; settings: Staphylococcus epidermidis
Description: as §1, §2

E. faecalis = assay: MIC by broth microdilution (aerobic pathogens), test strain 7; assay type: cell-based; settings: Enterococcus faecalis; test strain 7, E. faecalis; read-out: MIC
Description: as §1, §2

E. faecalis^VanA = assay: MIC by broth microdilution (aerobic pathogens), test strain 8; assay type: cell-based, Vancomycin resistant Enterococcus faecalis; settings: Enterococcus faecalis; test strain 8, E. faecalis^VanA (vancomycin resistant); read-out: MIC
Description: as §1, §2

E. faecalis^LinR = assay: MIC by broth microdilution (aerobic pathogens), test strain 9; assay type: cell-based, Linezolid resistant Enterococcus faecalis; settings: Enterococcus faecalis
Description: as §1, §2

E. faecium = assay: MIC by broth microdilution (aerobic pathogens), test strain 10; assay type: cell-based; settings: Enterococcus faecium; test strain 10, E. faecium; read-out: MIC
Description: as §1, §2

E. faecium^VRE = assay: MIC by broth microdilution (aerobic pathogens), test strain 11; assay type: cell-based, Vancomycin resistant Enterococcus faecium; settings: Enterococcus faecium; test strain 11, E. faecium^VRE (vancomycin resistant); read-out: MIC
Description: as §1, §2

E. faecium^LinR = assay: MIC by broth microdilution (aerobic pathogens), test strain 12; assay type: cell-based, Linezolid resistant Enterococcus faecium; settings: Enterococcus faecium; test strain 12, E. faecium^LinR (linezolid resistant); read-out: MIC
Description: as §1, §2

C. difficile 9689 = assay: MIC by agar dilution against Clostridioides difficile, test strain 13; assay type: cell-based
C. difficile 152 = assay: MIC by agar dilution against Clostridioides difficile, test strain 14; assay type: cell-based
C. difficile 173 = assay: MIC by agar dilution against Clostridioides difficile, test strain 17; assay type: cell-based
C. difficile 174 = assay: MIC by agar dilution against Clostridioides difficile, test strain 18; assay type: cell-based
C. difficile 181 = assay: MIC by agar dilution against Clostridioides difficile, test strain 19; assay type: cell-based; settings: test strain 19, C. difficile 181, anaerobic, agar dilution, read-out: MIC
S. aureus^MR = assay: MIC by broth microdilution (aerobic pathogens), test strain 3; assay type: cell-based, Methicillin resistant Staphylococcus aureus; settings: Staphylococcus aureus; test strain 3, S. aureus^MR (methicillin resistant); read-out: MIC
Description: as §1, §2

C. difficile 159 = assay: MIC by agar dilution against Clostridioides difficile, test strain 15; assay type: cell-based
C. difficile 161 = assay: MIC by agar dilution against Clostridioides difficile, test strain 16; assay type: cell-based; settings: test strain 16, C. difficile 161, anaerobic, agar dilution, read-out: MIC
M. abscessus = assay: MIC by resazurin (REMA) assay against Mycobacterium, test strain 23; assay type: cell-based; settings: Mycobacteroides abscessus
Description: In order to test the antibacterial activity, the medium of Mycobacterium cultured to late log phase was diluted so as to be 4.0×10^5 cells/well in Middlebrook 7H10 agar medium (Difco) supplemented with 10% oleic acid, albumin, dextrose, catalase (OADC, Becton Dickinson) and 0.05% Tween 80 (Sigma Aldrich) and was dispensed into a 96-well plate. The compounds were treated so that DMSO was 1%, and after 3 days, a 0.025% resazurin (REMA) solution was dispensed, and the growth of the bacteria was confirmed after culturing. The MIC value was measured for the antibacterial activity through resazurin (excitation 530 nm, emission 590 nm).

[3] = test strain 1, S. aureus^MS, read-out: MIC
[4] = test strain 2, S. aureus^MS, read-out: MIC
[5] = test strain 5, S. epidermis, read-out: MIC
[6] = test strain 6, S. epidermis^MR (methicillin resistant), read-out: MIC
[7] = test strain 9, E. faecalis^LinR (linezolid resistant), read-out: MIC
[8] = test strain 13, C. difficile 9689, anaerobic, agar dilution, read-out: MIC
[9] = test strain 14, C. difficile 152, anaerobic, agar dilution, read-out: MIC
[10] = test strain 17, C. difficile 173, anaerobic, agar dilution, read-out: MIC
[11] = test strain 18, C. difficile 174, anaerobic, agar dilution, read-out: MIC
[12] = test strain 15, C. difficile 159, anaerobic, agar dilution, read-out: MIC

Row | SMILES | MIC (S. aureus^MS [1]; [3]) [µg/mL] | MIC (S. aureus^MS [2]; [4]) [µg/mL] | MIC (S. aureus^VR) [µg/mL] | MIC (S. epidermis; [5]) [µg/mL] | MIC (S. epidermis^MR; [6]) [µg/mL] | MIC (E. faecalis) [µg/mL] | MIC (E. faecalis^VanA) [µg/mL] | MIC (E. faecalis^LinR; [7]) [µg/mL] | MIC (E. faecium) [µg/mL] | MIC (E. faecium^VRE) [µg/mL] | MIC (E. faecium^LinR) [µg/mL] | MIC (C. difficile 9689; [8]) [µg/mL] | MIC (C. difficile 152; [9]) [µg/mL] | MIC (C. difficile 173; [10]) [µg/mL] | MIC (C. difficile 174; [11]) [µg/mL] | MIC (C. difficile 181) [µg/mL] | MIC (C. difficile 159; [12]) [µg/mL] | MIC (C. difficile 161) [µg/mL] | further results
1 | C/C=C1\NC(=O)[C@H]([C@@H](C)O)NC(=O)c2csc(n2)-c2ccc(-c3nc(-c4nc(C(=O)NC5(C(=O)NCCn6c([N+](=O)[O-])cnc6C)CC5)cs4)cs3)nc2-c2csc(n2)[C@H]([C@@H](C)O)NC(=O)c2csc(n2)[C@H](C(C)C)NC(=O)c2csc1n2 [Compound 11] | 0.5 (≈ 0.403 µM) | 0.5 (≈ 0.403 µM) | – | 0.125 (≈ 0.101 µM) | 0.5 (≈ 0.403 µM) | 0.25 (≈ 0.202 µM) | 1 (≈ 0.807 µM) | 0.5 (≈ 0.403 µM) | 1 (≈ 0.807 µM) | – | – | 1 (≈ 0.807 µM) | 0.25 (≈ 0.202 µM) | 0.125 (≈ 0.101 µM) | 0.125 (≈ 0.101 µM) | 0.125 (≈ 0.101 µM) | 0.5 (≈ 0.403 µM) | 0.5 (≈ 0.403 µM) | –
2 | C/C=C1\NC(=O)[C@H]([C@@H](C)O)NC(=O)c2csc(n2)-c2ccc(-c3nc(-c4nc(C(=O)NC5(C(=O)NN6CC(=O)NC6=O)CC5)cs4)cs3)nc2-c2csc(n2)[C@H]([C@@H](C)O)NC(=O)c2csc(n2)[C@H](C(C)C)NC(=O)c2csc1n2 [Compound 23] | – | – | – | – | – | – | – | – | – | – | – | – | – | – | – | – | – | – | MIC (S. aureus^MS [1]): 0.5 µg/mL (≈ 0.422 µM); MIC (S. aureus^MS [2]): 0.5 µg/mL (≈ 0.422 µM); MIC (S. epidermis): 1 µg/mL (≈ 0.844 µM); MIC (S. epidermis^MR): 1 µg/mL (≈ 0.844 µM); MIC (E. faecalis^LinR): 1 µg/mL (≈ 0.844 µM); MIC (C. difficile 9689; 9689): 0.25 µg/mL (≈ 0.211 µM); MIC (C. difficile 152; 152): 0.25 µg/mL (≈ 0.211 µM); MIC (C. difficile 159; 159): 0.5 µg/mL (≈ 0.422 µM); MIC (C. difficile 173; 173): 1 µg/mL (≈ 0.844 µM); MIC (C. difficile 174; 174): 0.125 µg/mL (≈ 0.106 µM); MIC (M. abscessus): 0.226 µg/mL (≈ 0.191 µM)
3 | C/C=C1\NC(=O)[C@H]([C@@H](C)O)NC(=O)c2csc(n2)-c2ccc(-c3nc(-c4nc(C(=O)NC5(C(=O)NCCn6cnc([N+](=O)[O-])n6)CC5)cs4)cs3)nc2-c2csc(n2)[C@H]([C@@H](C)O)NC(=O)c2csc(n2)[C@H](C(C)C)NC(=O)c2csc1n2 [Compound 38] | 1 (≈ 0.815 µM) | 1 (≈ 0.815 µM) | 1 (≈ 0.815 µM) | 1 (≈ 0.815 µM) | 1 (≈ 0.815 µM) | – | 1 (≈ 0.815 µM) | – | 0.5 (≈ 0.408 µM) | 1 (≈ 0.815 µM) | 1 (≈ 0.815 µM) | – | – | – | – | – | – | – | –

Now from value to compound, other results behind:

Row | MIC (S. aureus^MS [1]; [3]) [µg/mL] | MIC (S. aureus^MS [2]; [4]) [µg/mL] | MIC (S. aureus^VR) [µg/mL] | MIC (S. epidermis; [5]) [µg/mL] | MIC (S. epidermis^MR; [6]) [µg/mL] | MIC (E. faecalis) [µg/mL] | MIC (E. faecalis^VanA) [µg/mL] | MIC (E. faecalis^LinR; [7]) [µg/mL] | MIC (E. faecium) [µg/mL] | MIC (E. faecium^VRE) [µg/mL] | MIC (E. faecium^LinR) [µg/mL] | MIC (C. difficile 9689; [8]) [µg/mL] | MIC (C. difficile 152; [9]) [µg/mL] | MIC (C. difficile 173; [10]) [µg/mL] | MIC (C. difficile 174; [11]) [µg/mL] | MIC (C. difficile 181) [µg/mL] | MIC (C. difficile 159; [12]) [µg/mL] | MIC (C. difficile 161) [µg/mL] | SMILES | further results
4 | 0.5 (≈ 0.406 µM) | 0.25 (≈ 0.203 µM) | 1 (≈ 0.812 µM) | 0.5 (≈ 0.406 µM) | 1 (≈ 0.812 µM) | 0.125 (≈ 0.101 µM) | 1 (≈ 0.812 µM) | 0.125 (≈ 0.101 µM) | 0.25 (≈ 0.203 µM) | 1 (≈ 0.812 µM) | 0.5 (≈ 0.406 µM) | 1 (≈ 0.812 µM) | 0.06 (≈ 0.0487 µM) | 0.06 (≈ 0.0487 µM) | 0.06 (≈ 0.0487 µM) | 0.06 (≈ 0.0487 µM) | – | – | C/C=C1\NC(=O)[C@H]([C@@H](C)O)NC(=O)c2csc(n2)-c2ccc(-c3nc(-c4nc(C(=O)NC5(C(=O)NCC6OB(O)c7ccccc76)CC5)cs4)cs3)nc2-c2csc(n2)[C@H]([C@@H](C)O)NC(=O)c2csc(n2)[C@H](C(C)C)NC(=O)c2csc1n2 (stereo partly shown) [Compound 6] | –
5 | 0.125 (≈ 0.107 µM) | 0.0625 (≈ 0.0533 µM) | 0.5 (≈ 0.427 µM) | 0.0625 (≈ 0.0533 µM) | 0.125 (≈ 0.107 µM) | 0.25 (≈ 0.213 µM) | 0.25 (≈ 0.213 µM) | 0.125 (≈ 0.107 µM) | 0.25 (≈ 0.213 µM) | – | 0.5 (≈ 0.427 µM) | 0.5 (≈ 0.427 µM) | 0.06 (≈ 0.0512 µM) | 0.06 (≈ 0.0512 µM) | 0.06 (≈ 0.0512 µM) | 0.25 (≈ 0.213 µM) | 0.25 (≈ 0.213 µM) | 0.125 (≈ 0.107 µM) | C/C=C1\NC(=O)[C@H]([C@@H](C)O)NC(=O)c2csc(n2)-c2ccc(-c3nc(-c4nc(C(=O)NC5(C(=O)NCCCB(O)O)CC5)cs4)cs3)nc2-c2csc(n2)[C@H]([C@@H](C)O)NC(=O)c2csc(n2)[C@H](C(C)C)NC(=O)c2csc1n2 [Compound 10] | MIC (S. aureus^MR): 0.5 µg/mL (≈ 0.427 µM)
6 | 0.25 (≈ 0.211 µM) | 0.125 (≈ 0.105 µM) | – | 0.5 (≈ 0.421 µM) | 0.5 (≈ 0.421 µM) | 0.5 (≈ 0.421 µM) | – | 0.25 (≈ 0.211 µM) | 0.5 (≈ 0.421 µM) | 1 (≈ 0.843 µM) | 1 (≈ 0.843 µM) | 0.25 (≈ 0.211 µM) | 0.25 (≈ 0.211 µM) | 0.5 (≈ 0.421 µM) | 0.25 (≈ 0.211 µM) | 1 (≈ 0.843 µM) | 0.5 (≈ 0.421 µM) | 1 (≈ 0.843 µM) | C/C=C1\NC(=O)[C@H]([C@@H](C)O)NC(=O)c2csc(n2)-c2ccc(-c3nc(-c4nc(C(=O)NC5(C(=O)NCCCCB(O)O)CC5)cs4)cs3)nc2-c2csc(n2)[C@H]([C@@H](C)O)NC(=O)c2csc(n2)[C@H](C(C)C)NC(=O)c2csc1n2 [Compound 20] | –
